The numbers were not newly measured in patent US20140053594A1, “THERMALLY ACTIVATED PRESSURE BOOSTER FOR HEAT PUMPING AND POWER GENERATION” (priority 2011, published 2014), which cites them from elsewhere.

Series [1] relates to rat. Conditions: intravenous.
The subject of the next series is RBT. Conditions: intraperitoneal, rabbit.
The test system of series [2] is rat. Conditions: oral.
Series [3] relates to rat. The following applies: intraperitoneal.
In series [4] the test system is rat.

Take `CN(C)C=O` [DMF, dimethylformamide]: the “IVN-RAT LD50” value in the series on rat [1] is 2000 mg/kg. Further, the “IPR-RBT LD50” value in the series with RBT was “LD50 1000 mg kg^−1”. Besides, in the series with rat [2], the “ORL-RAT LD50” value was “ORL-RAT LD50 2800 mg kg^−1”. In addition, the “IPR-RAT LD50” value with rat [3] was 1400 mg/kg.

Consider `C[S+](C)[O-]` [DMSO, dimethyl sulfoxide], for which the “Acute dermal toxicity (LD50)” value with rat [4] was 40000 mg/kg [Rat]. In addition, in the series with Mouse, the “Acute oral toxicity (LD50)” value is 7920 mg/kg [Mouse].
